Each structure is given as a SMILES string. Where a SMILES comes first, the peptide text is derived from it. Bridges are numbered along the chain shown (N, C = ends). [ ]: non-standard residue; d: D form. The star is where a group is joined. Threoninol(2S,3R) = C[C@@H](O)[C@H](CO)N*

The source of these data is ChEMBL document CHEMBL1909046, “DrugMatrix in vitro pharmacology data”.

A short description of experiment [1]: DRUGMATRIX: Sodium/nucleoside co-transporter radioligand binding (ligand: nitrobenzylthioinosine). The following applies: Not Active = under 50% inhibition at 10 µM. Type of experiment: cell membranes, Cavia porcellus, Dunkin-Hartley, Cerebral cortex, Membrane.
Experiment [2] deals with Sodium-dependent noradrenaline transporter (Homo sapiens, UniProt P23975). Nature of the experiment: DRUGMATRIX: Norepinephrine Transporter radioligand binding (ligand: [125I] RTI-55). Type of experiment: cell membranes, MDCK, Membrane. The note with it: Not Active = under 50% inhibition at 10 µM.
Chain of Sodium-dependent noradrenaline transporter (P23975 whole entry): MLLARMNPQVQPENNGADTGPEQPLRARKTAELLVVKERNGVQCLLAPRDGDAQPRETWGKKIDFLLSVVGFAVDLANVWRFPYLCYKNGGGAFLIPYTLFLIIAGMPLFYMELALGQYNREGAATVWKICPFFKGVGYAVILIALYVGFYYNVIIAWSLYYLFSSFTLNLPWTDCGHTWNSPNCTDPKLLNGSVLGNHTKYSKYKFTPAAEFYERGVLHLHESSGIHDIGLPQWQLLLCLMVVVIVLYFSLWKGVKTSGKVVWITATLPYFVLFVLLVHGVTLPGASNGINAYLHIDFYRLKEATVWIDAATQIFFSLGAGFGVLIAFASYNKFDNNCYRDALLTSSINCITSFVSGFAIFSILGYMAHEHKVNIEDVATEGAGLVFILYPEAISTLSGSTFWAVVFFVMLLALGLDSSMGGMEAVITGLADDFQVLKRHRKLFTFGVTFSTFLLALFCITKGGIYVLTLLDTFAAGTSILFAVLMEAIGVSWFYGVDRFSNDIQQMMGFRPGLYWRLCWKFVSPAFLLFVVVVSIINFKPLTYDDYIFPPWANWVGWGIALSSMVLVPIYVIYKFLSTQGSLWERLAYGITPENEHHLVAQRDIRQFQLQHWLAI
The target in the next experiment is T1, Neutrophil elastase (Homo sapiens, UniProt P08246).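 Note: inhibition of neutrophil elastase enzyme activity, measured with a p-nitroanilide-linked peptide substrate; in other assays of this panel Not Active means under 50% inhibition at 10 µM.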
T1 sequence (P08246 whole entry): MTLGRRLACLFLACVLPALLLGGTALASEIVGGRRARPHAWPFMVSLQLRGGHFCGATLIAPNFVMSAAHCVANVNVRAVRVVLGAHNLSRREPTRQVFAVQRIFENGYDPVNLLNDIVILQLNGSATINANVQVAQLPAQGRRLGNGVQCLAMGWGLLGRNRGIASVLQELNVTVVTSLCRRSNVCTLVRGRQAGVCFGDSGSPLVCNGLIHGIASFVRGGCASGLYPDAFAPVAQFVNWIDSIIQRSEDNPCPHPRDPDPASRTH
It counts as tissue-based.

The target in experiment [3] is T2, Receptor-type tyrosine-protein phosphatase C (Homo sapiens, UniProt P08575).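 Note: inhibition of CD45 enzyme activity measured using DiFMUP as substrate; in other assays of this panel Not Active means under 50% inhibition at 10 µM.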
T2 sequence (P08575 whole entry): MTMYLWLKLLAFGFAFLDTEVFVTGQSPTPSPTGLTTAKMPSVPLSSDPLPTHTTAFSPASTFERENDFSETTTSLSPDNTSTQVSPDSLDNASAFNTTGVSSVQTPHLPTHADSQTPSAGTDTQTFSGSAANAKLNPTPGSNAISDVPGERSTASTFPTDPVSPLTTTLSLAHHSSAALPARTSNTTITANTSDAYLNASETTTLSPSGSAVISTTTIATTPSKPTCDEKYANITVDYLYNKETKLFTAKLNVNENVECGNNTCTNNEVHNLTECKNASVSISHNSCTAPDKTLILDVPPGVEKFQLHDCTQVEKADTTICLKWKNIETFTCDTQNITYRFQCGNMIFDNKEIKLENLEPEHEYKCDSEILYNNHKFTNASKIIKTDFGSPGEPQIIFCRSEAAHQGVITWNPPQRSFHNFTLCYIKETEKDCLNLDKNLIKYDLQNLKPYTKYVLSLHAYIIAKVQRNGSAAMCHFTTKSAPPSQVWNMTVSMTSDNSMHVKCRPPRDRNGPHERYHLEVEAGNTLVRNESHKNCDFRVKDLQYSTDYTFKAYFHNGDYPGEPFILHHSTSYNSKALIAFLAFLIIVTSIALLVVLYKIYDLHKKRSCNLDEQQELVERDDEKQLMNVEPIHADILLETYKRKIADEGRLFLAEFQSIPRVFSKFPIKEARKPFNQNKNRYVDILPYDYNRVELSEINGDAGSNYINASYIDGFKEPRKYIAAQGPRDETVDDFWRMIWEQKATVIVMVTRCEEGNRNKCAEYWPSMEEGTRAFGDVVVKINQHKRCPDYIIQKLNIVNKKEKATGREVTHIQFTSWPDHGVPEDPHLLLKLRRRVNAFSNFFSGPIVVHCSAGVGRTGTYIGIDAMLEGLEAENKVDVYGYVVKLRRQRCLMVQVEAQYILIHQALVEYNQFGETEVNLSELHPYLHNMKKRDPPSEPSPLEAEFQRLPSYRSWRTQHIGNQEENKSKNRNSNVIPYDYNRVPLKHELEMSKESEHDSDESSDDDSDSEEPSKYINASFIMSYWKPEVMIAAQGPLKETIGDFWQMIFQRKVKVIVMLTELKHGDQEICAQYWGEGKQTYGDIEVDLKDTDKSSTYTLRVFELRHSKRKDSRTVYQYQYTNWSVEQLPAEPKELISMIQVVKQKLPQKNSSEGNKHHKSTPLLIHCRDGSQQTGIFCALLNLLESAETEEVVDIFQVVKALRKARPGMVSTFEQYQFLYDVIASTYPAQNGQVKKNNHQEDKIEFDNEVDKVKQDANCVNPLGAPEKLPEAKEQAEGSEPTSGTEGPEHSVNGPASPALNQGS
More on the design: species or system Escherichia coli.

Experiment [4] deals with Protein phosphatase 3 catalytic subunit alpha (Homo sapiens, UniProt Q08209). Details: species or system Escherichia coli.
For experiment [5], the target named is 5-hydroxytryptamine receptor 2B (Homo sapiens, UniProt P41595). Type of experiment: cell membranes, CHO-K1, Membrane. The note with it: for Ki: read-out: Ki. For all read-outs here: in other assays of this panel Not Active means under 50% inhibition at 10 µM.
Chain of 5-hydroxytryptamine receptor 2B (P41595 whole entry): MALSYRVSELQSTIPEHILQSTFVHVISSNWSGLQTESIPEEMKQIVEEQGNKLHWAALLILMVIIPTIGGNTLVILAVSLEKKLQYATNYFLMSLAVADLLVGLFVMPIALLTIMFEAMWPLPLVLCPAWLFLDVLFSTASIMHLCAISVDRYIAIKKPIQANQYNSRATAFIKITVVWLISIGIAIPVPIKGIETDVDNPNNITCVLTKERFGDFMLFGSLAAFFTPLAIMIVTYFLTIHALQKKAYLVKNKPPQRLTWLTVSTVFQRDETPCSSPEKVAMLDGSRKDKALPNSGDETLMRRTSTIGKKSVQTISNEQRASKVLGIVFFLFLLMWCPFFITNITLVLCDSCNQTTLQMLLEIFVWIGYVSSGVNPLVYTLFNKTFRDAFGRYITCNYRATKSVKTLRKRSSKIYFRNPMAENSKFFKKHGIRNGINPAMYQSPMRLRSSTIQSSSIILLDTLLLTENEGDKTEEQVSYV
Experiment [6] deals with T3, Type-2 angiotensin II receptor (Homo sapiens, UniProt P50052).
T3 sequence (P50052 whole entry): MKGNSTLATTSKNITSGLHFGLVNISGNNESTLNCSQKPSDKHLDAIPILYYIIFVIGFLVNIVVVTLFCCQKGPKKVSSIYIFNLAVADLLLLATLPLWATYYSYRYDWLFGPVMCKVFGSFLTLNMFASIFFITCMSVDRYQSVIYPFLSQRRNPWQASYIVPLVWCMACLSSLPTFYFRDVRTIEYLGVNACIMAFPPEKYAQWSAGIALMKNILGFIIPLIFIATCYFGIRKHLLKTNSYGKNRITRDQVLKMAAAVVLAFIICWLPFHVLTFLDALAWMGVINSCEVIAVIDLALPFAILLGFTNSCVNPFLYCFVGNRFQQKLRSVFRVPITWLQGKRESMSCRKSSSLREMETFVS
It counts as cell-based. The note with it: cho-k1.

The target in experiment [7] is T4, 5-hydroxytryptamine receptor 1A (Rattus norvegicus, UniProt P19327). Note: in other assays of this panel Not Active means under 50% inhibition at 10 µM.
T4 sequence (P19327 whole entry): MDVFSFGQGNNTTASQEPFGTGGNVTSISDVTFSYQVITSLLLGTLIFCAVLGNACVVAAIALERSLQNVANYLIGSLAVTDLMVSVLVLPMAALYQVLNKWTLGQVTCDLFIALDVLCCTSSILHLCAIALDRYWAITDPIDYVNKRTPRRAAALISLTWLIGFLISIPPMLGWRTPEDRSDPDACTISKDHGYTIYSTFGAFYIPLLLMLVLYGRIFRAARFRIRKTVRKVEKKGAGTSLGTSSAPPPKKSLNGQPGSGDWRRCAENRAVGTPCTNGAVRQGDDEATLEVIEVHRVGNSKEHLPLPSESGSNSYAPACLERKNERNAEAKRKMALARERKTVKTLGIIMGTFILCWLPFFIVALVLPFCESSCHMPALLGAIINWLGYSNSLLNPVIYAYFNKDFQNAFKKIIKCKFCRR
Type of experiment: cell membranes, Membrane. The following applies: cho-k1.

What is called IC50 is the concentration needed to halve the response being measured. As usually defined, the Ki is a measure of affinity in units of concentration, obtained from inhibition or displacement. In the case of `COc1ccccc1C(=O)N1CCC(Cc2ccccc2)CC1`, the IC50 result (in experiment [1]; in experiment [2] (mdck); against Neutrophil elastase; in experiment [3]; in experiment [4]; in experiment [5] (cho-k1)) was “Not Active” each time. Also, the IC50 entry in experiment [6] and in experiment [7] was “Not Active” in each case. Besides, the inhibition constant Ki result in experiment [1] was “Not Active”.

For the compound `Cc1ccccc1C(=O)N1CCC(Cc2ccccc2)CC1`, the IC50 entry in experiment [1] is “Not Active”; in experiment [2] (mdck), “Not Active”; against Neutrophil elastase it was “Not Active”; in experiment [3] it was “Not Active”; in experiment [4], “Not Active”; in experiment [5] (read-out: IC50), 1860 nM. In addition, the IC50 result in experiment [6] and in experiment [7] was “Not Active” throughout. The figures for the Ki result in experiment [1] and in experiment [5] were “Not Active” and 1180 nM, respectively.

Take `O=C1CC[C@H](N2C(=O)c3ccccc3C2=O)C(=O)N1`: the IC50 result (in experiment [1]; in experiment [2] (mdck); against Neutrophil elastase; in experiment [3]; in experiment [4]; in experiment [5] (cho-k1)) was “Not Active” each time. Moreover, the IC50 entry in experiment [6] and in experiment [7] was “Not Active” in each case. Also, the Ki result in experiment [1] was “Not Active”.

Turning to `N=C(Nc1ccccc1)Nc1ccccc1`, the IC50 result is “Not Active” in experiment [1]; 1150 nM in experiment [2] (read-out: IC50); “Not Active” on Neutrophil elastase; “Not Active” in experiment [3]; “Not Active” in experiment [4]; “Not Active” in experiment [5] (cho-k1). Moreover, the 50% inhibitory concentration (IC50) entry in experiment [6] and in experiment [7] was “Not Active” each time. The inhibition constant (Ki) result in experiment [1] is “Not Active”; in experiment [2] (read-out: Ki) it was 1140 nM.

On to `C[C@@H](O)[C@H](CO)NC(=O)[C@@H]1CSSC[C@H](NC(=O)[C@H](N)Cc2ccccc2)C(=O)N[C@@H](Cc2ccccc2)C(=O)N[C@H](Cc2c[nH]c3ccccc23)C(=O)N[C@@H](CCCCN)C(=O)N[C@@H]([C@@H](C)O)C(=O)N1` (H-[dF]CF[dW]KTC-{Threoninol(2S,3R)}; disulfide 2-7), for which the 50% inhibitory concentration (IC50) result (in experiment [1]; in experiment [2] (mdck); on Neutrophil elastase; in experiment [3]; in experiment [4]; in experiment [5] (cho-k1)) was “Not Active” in each case. The half-maximal inhibitory concentration (IC50) result in experiment [6] and in experiment [7] was “Not Active” in each case. For the same compound, in experiment [1], the Ki entry is reported as “Not Active”.

As to `C[C@](O)(CS(=O)(=O)c1ccc(F)cc1)C(=O)Nc1ccc(C#N)c(C(F)(F)F)c1` [(R)-BICALUTAMIDE], the IC50 entry (in experiment [1]; against Neutrophil elastase; in experiment [3]; in experiment [4]; in experiment [5] (cho-k1); in experiment [6]) was “Not Active” throughout. Further, in experiment [7], the IC50 entry is reported as “Not Active”. Also, in experiment [1], the Ki entry is “Not Active”.

For `O=C1CC2(CCCC2)CC(=O)N1CCCCN1CCN(c2ncccn2)CC1` [BUSPIRONE], the IC50 result in experiment [1] is “Not Active”; in experiment [2] (mdck) it was “Not Active”; against Neutrophil elastase, “Not Active”; in experiment [3] it was “Not Active”; in experiment [4], “Not Active”; in experiment [5] (read-out: IC50), 750 nM. For the same compound, the half-maximal inhibitory concentration (IC50) result in experiment [6] was “Not Active”. The inhibition constant Ki result is “Not Active” in experiment [1] and 477 nM in experiment [5].

Consider `C/C=C/C[C@@H](C)[C@@H](O)[C@H]1C(=O)N[C@@H](CC)C(=O)N(C)CC(=O)N(C)[C@@H](CC(C)C)C(=O)N[C@@H](C(C)C)C(=O)N(C)[C@@H](CC(C)C)C(=O)N[C@@H](C)C(=O)N[C@H](C)C(=O)N(C)[C@@H](CC(C)C)C(=O)N(C)[C@@H](CC(C)C)C(=O)N(C)[C@@H](C(C)C)C(=O)N1C` [CYCLOSPORINE], for which the IC50 entry (in experiment [1]; in experiment [2] (mdck); at Neutrophil elastase; in experiment [3]; in experiment [5] (cho-k1); in experiment [6]) was “Not Active” throughout. In addition, in experiment [7], the IC50 entry is listed as “Not Active”. Further, the inhibition constant (Ki) entry in experiment [1] is reported as “Not Active”.
